# Reference: patent US8153818B2, “Triazolyl phenyl benzenesulfonamides” (ChemoCentryx, Inc., priority 2006, dated 2012)
# Target: T1, CCR9 (Homo sapiens, UniProt P51686)
# T1 construct: chemokine expressing cells (such as THP-1 cells for CCR2 assay or MOLT-4 cells for CCR9 assay); host or cells: MOLT-4
# T1 sequence (P51686 1-369): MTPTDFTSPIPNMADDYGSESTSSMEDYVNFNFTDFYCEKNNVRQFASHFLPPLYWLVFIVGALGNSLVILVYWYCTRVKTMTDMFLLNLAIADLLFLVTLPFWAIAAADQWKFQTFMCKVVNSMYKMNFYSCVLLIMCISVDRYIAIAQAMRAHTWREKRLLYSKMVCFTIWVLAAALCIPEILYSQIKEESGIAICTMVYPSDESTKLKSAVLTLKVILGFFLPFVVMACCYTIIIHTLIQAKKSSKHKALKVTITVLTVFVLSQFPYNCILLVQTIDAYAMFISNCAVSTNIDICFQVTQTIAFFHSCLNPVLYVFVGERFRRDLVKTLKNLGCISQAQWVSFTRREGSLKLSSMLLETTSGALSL
# Assay: CCR9 activity in one of the chemotaxis, binding or calcium mobilization assays
# Type: cell-based
# Conditions: assay not specified per compound
# Outline: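 Chemotaxis: THP-1 cells (CCR2, 0.1 nM MCP-1, 90 min) or MOLT-4 cells (CCR9, 50 nM TECK, 150 min) preincubated with compound 15 min RT, migration at 37 °C through 5-μm membrane, CyQUANT read; IC50 by nonlinear regression. Calcium flux: Fluo-4-loaded cells, 0.1 nM MCP-1 or 25 nM TECK. Binding: THP-1, ~50 pM [125I]MCP-1, 3 h, 4 °C.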
row,Compound,IC50 [nM]
1,"CC(C)NCc1nnc(-c2cc(Cl)ccc2NS(=O)(=O)c2ccc(C(C)(C)C)cc2)n1C [Compound 138, 4-tert-butyl-N-(4-chloro-2-(5-((isopropylamino)methyl)-4-methyl-4H-1,2,4-triazol-3-yl)phenyl)benzenesulfonamide]",< 1000
2,CO[C@@H](C)c1nnc(-c2cc(Cl)c(F)cc2NS(=O)(=O)c2ccc(C(C)(C)C)cc2)n1C [Compound 139],< 1000
3,Cn1c(-c2cc(Cl)c(F)cc2NS(=O)(=O)c2ccc(C(C)(C)C)cc2)nnc1[C@H]1CCCN1 [Compound 140],< 1000
4,CC(C)N1CC[C@H](n2cnnc2-c2cc(Cl)ccc2NS(=O)(=O)c2ccc(C(C)(C)C)cc2)C1 [Compound 141],< 1000
5,"CC1(c2ccc(S(=O)(=O)Nc3ccc(Cl)cc3-c3nncn3[C@H]3CCNC3)cc2)CCOCC1 [Compound 142, (S)—N-(4-chloro-2-(4-(pyrrolidin-3-yl)-4H-1,2,4-triazol-3-yl)phenyl)-4-(4-methyltetrahydro-2H-pyran-4-yl)benzenesulfonamide]",< 1000
6,CC(C)(C)c1ccc(S(=O)(=O)Nc2ccc(Cl)cc2-c2nncn2[C@H]2CCN(C(N)=O)C2)cc1 [Compound 143],< 1000
7,Cn1c(CN2CCOCC2)nnc1-c1cc(Cl)ccc1NS(=O)(=O)c1ccc(C(C)(C)C)cc1 [Compound 144],< 1000
8,Cn1c(-c2cc(Cl)c(F)cc2NS(=O)(=O)c2ccc(C(C)(C)C)cc2)nnc1C1CCCNC1 (stereo not shown) [Compound 145],< 1000
9,CC(C)c1nnc(-c2cc(Cl)c(F)cc2NS(=O)(=O)c2ccc(C(C)(C)C)cc2)n1[C@H]1CCNC1 [Compound 146],< 1000
10,Cn1c(CN2CCNCC2)nnc1-c1cc(Cl)c(F)cc1NS(=O)(=O)c1ccc(C(C)(C)C)cc1 [Compound 147],< 1000
11,Cn1c(CN[C@H]2CCOC2)nnc1-c1cc(Cl)c(F)cc1NS(=O)(=O)c1ccc(C(C)(C)C)cc1 [Compound 148],< 1000
12,"COCCN(C)Cc1nnc(-c2cc(Cl)c(F)cc2NS(=O)(=O)c2ccc(C(C)(C)C)cc2)n1C [Compound 149, 4-tert-butyl-N-(4-chloro-5-fluoro-2-(5-(((2-methoxyethyl)(methyl)amino)methyl)-4-methyl-4H-1,2,4-triazol-3-yl)phenyl)benzenesulfonamide]",< 1000
13,CC(C)n1c(-c2cc(Cl)ccc2NS(=O)(=O)c2ccc(C(C)(C)C)cc2)nnc1C1(C)CCOCC1 [Compound 150],< 1000
14,CN1CCN(Cc2nnc(-c3cc(Cl)c(F)cc3NS(=O)(=O)c3ccc(C(C)(C)C)cc3)n2C)CC1 [Compound 151],< 1000
15,Cn1c(CNC2CCOCC2)nnc1-c1cc(Cl)c(F)cc1NS(=O)(=O)c1ccc(C(C)(C)C)cc1 [Compound 152],< 1000
16,CC(C)(C)c1ccc(S(=O)(=O)Nc2ccc(Cl)cc2-c2nncn2[C@H]2CCN(S(C)(=O)=O)C2)cc1 [Compound 153],< 1000
17,CC(C)n1c(CN2CCOCC2)nnc1-c1cc(Cl)c(F)cc1NS(=O)(=O)c1ccc(C(C)(C)C)cc1 [Compound 154],< 1000
18,Cc1nnc(-c2cc(Cl)ccc2NS(=O)(=O)c2ccc(C(C)(C)C)cc2)n1C1CCN(C)CC1 [Compound 155],< 1000
19,"CC(C)(C)c1ccc(S(=O)(=O)Nc2ccc(Cl)cc2-c2nnc3ncccn23)cc1 [Compound 156, N-(2-([1,2,4]triazolo[4,3-a]pyrimidin-3-yl)-4-chlorophenyl)-4-tert-butylbenzenesulfonamide]",< 1000
